# Columns and labels:
# Test in all cases: relative viability (nuclei count vs DMSO), 5 days (fraction); higher = more cells survive
# [1] = compound: CC(=O)Nc1cccc(-n2c(=O)n(C3CC3)c(=O)c3c(Nc4ccc(I)cc4F)n(C)c(=O)c(C)c32)c1 [Trametinib] + C[C@]1(O)C[C@@H](c2nc(-c3ccc4ccc(-c5ccccc5)nc4c3)c3c(N)nccn32)C1 [Linsitinib] (partner 1 µM)
# Outline: (§1)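 A single step with final 0.05% Triton X-100, 1% formaldehyde and 1 ug/ml Hoechst fixed the cells and stained nuclei 5 days after treatment. Lung cancer cell lines in 1536-well plates had been treated by pin tool the day after seeding with one drug alone or a fixed anchor-drug dose plus five library-drug doses (not always all listed) in √10 steps, and nuclei were counted on 4× images. Relative viability is the ratio of nuclei in treated wells to nuclei in vehicle wells, taken as the median of duplicate plates.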
# [2] = compound: CC(=O)Nc1cccc(-n2c(=O)n(C3CC3)c(=O)c3c(Nc4ccc(I)cc4F)n(C)c(=O)c(C)c32)c1 [Trametinib] + O=C(c1cc(Cc2n[nH]c(=O)c3ccccc23)ccc1F)N1CCN(C(=O)C2CC2)CC1 [Olaparib] (partner 8 µM)
# Outline: as §1
# [3] = compound: CN1C=C(C2=CC=CC=C21)/C=C\3/C4=C(C=CC=N4)NC3=O + CC(C)C[C@H](NC(=O)[C@H](Cc1ccccc1)NC(=O)c1cnccn1)B(O)O [Bortezomib] (partner 0.002 µM)
# Outline: as §1
# [4] = compound: CN1C=C(C2=CC=CC=C21)/C=C\3/C4=C(C=CC=N4)NC3=O + Nc1ncn([C@H]2C[C@H](O)[C@@H](CO)O2)c(=O)n1 [Decitabine] (partner 2 µM)
# Outline: as §1
Cell Line,relative viability ([1]; first compound 0.0025 µM),relative viability ([1]; first compound 0.007906 µM),relative viability ([1]; first compound 0.025 µM),relative viability ([1]; first compound 0.07906 µM),relative viability ([1]; first compound 0.25 µM),relative viability ([2]; first compound 0.0025 µM),relative viability ([2]; first compound 0.007906 µM),relative viability ([2]; first compound 0.025 µM),relative viability ([2]; first compound 0.07906 µM),relative viability ([2]; first compound 0.25 µM),relative viability ([3]; first compound 0.02 µM),relative viability ([3]; first compound 0.06325 µM),relative viability ([3]; first compound 0.2 µM),relative viability ([3]; first compound 0.6325 µM),relative viability ([3]; first compound 2 µM),relative viability ([4]; first compound 0.02 µM),relative viability ([4]; first compound 0.06325 µM),relative viability ([4]; first compound 0.2 µM),relative viability ([4]; first compound 0.6325 µM),relative viability ([4]; first compound 2 µM)
201T,1.01,1.02,0.863,0.959,0.778,0.841,0.782,0.747,0.678,0.642,1.02,1.18,1.07,1.16,1.09,0.857,0.891,0.859,0.885,0.917
A549,0.461,0.387,0.203,0.231,0.0933,0.29,0.27,0.14,0.211,0.0478,–,–,–,–,–,0.332,0.207,0.133,0.225,0.324
A-427,1.11,1.14,0.631,0.825,0.432,0.748,0.828,0.729,0.671,0.524,0.939,0.9,–,1.03,1.21,0.632,0.479,–,0.557,0.651
ABC-1,0.673,0.462,0.537,0.421,0.41,0.821,0.725,0.977,0.752,1.13,0.368,0.257,0.285,0.299,0.372,1.3,0.941,0.829,0.909,1.15
BEN,0.81,0.762,–,0.687,0.882,1.15,1.04,0.995,1.01,1.02,0.82,0.557,0.64,0.593,0.917,0.691,0.634,0.513,0.623,0.781
CAL-12T,0.79,0.607,0.484,0.428,0.341,0.692,0.555,0.522,0.511,0.487,0.904,0.882,0.945,1.08,1.04,–,–,–,–,–
COR-L23,0.874,0.851,0.827,0.639,0.306,0.422,0.473,0.43,0.392,0.261,1.01,0.953,1.19,0.866,1.04,0.446,0.372,0.403,0.408,0.435
COR-L 105,0.788,0.754,0.49,0.394,0.367,0.738,0.76,0.498,0.466,0.417,0.743,0.749,0.693,0.675,0.811,0.633,0.745,0.63,0.68,0.64
Calu-6,0.951,0.719,0.35,0.15,0.124,0.589,0.452,0.214,0.142,0.129,0.985,0.923,0.87,0.946,1.04,–,–,–,–,–
ChaGo-K-1,–,–,–,–,–,0.435,0.405,0.405,0.412,0.359,0.902,0.94,–,0.987,0.979,0.519,0.515,0.5,0.534,0.476
EBC-1,1,1.15,0.456,0.407,0.189,0.745,0.681,0.543,0.179,0.195,0.473,0.524,0.51,0.572,0.494,–,–,–,–,–
EKVX,0.875,0.757,0.767,0.632,0.282,0.795,0.66,0.61,0.472,0.316,1.05,0.79,0.946,1.04,0.972,0.291,–,–,0.303,0.301
EMC-BAC-2,0.744,0.754,0.634,0.674,0.537,0.638,0.623,0.617,0.69,0.476,0.901,1.05,1.01,1.05,1.14,0.925,0.926,1.01,0.99,1.04
EPLC-272H,1.23,0.89,0.471,0.659,0.489,0.628,0.406,0.332,0.322,0.173,0.959,0.704,–,0.918,0.873,0.382,0.345,–,0.333,0.336
H3255,1.02,0.822,0.795,0.855,0.575,0.559,0.533,0.476,0.461,0.411,0.935,0.843,0.704,0.701,0.655,0.796,–,0.57,0.563,0.491
HARA,0.757,0.736,0.673,0.535,0.237,0.696,0.832,0.664,0.449,0.308,1.06,1.09,0.87,1.18,1.14,0.373,0.477,–,0.597,0.524
HCC-15,0.694,0.447,0.294,0.239,0.186,0.766,0.39,0.447,0.369,0.3,0.972,0.939,1.09,1.09,1.18,0.562,0.566,0.656,0.579,0.814

Cell Line,relative viability ([1]; first compound 0.0025 µM),relative viability ([1]; first compound 0.007906 µM),relative viability ([1]; first compound 0.025 µM),relative viability ([1]; first compound 0.07906 µM),relative viability ([1]; first compound 0.25 µM),relative viability ([2]; first compound 0.0025 µM),relative viability ([2]; first compound 0.007906 µM),relative viability ([2]; first compound 0.025 µM),relative viability ([2]; first compound 0.07906 µM),relative viability ([2]; first compound 0.25 µM),relative viability ([3]; first compound 0.02 µM),relative viability ([3]; first compound 0.06325 µM),relative viability ([3]; first compound 0.2 µM),relative viability ([3]; first compound 0.6325 µM),relative viability ([3]; first compound 2 µM),relative viability ([4]; first compound 0.02 µM),relative viability ([4]; first compound 0.06325 µM),relative viability ([4]; first compound 0.2 µM),relative viability ([4]; first compound 0.6325 µM),relative viability ([4]; first compound 2 µM)
IA-LM,0.574,0.553,0.142,0.218,0.145,0.826,0.74,0.244,0.242,0.167,1,0.873,0.554,0.768,0.696,–,–,–,–,–
LK-2,0.553,0.44,0.604,0.304,0.469,0.654,0.619,0.81,0.51,0.293,–,–,–,–,–,0.225,0.24,0.192,0.275,0.375
NCI-H358,0.587,0.438,0.399,0.332,0.28,0.47,0.303,0.186,0.185,0.127,–,–,–,–,–,0.233,0.186,0.195,0.204,0.246
NCI-H522,–,–,–,–,–,0.617,0.485,0.583,0.555,0.545,–,–,–,–,–,0.598,0.644,0.716,0.637,0.695
NCI-H1299,0.955,0.953,0.9,0.726,0.386,1.04,1,0.942,0.832,0.587,1.05,0.957,0.965,1.06,0.988,–,–,–,–,–
NCI-H1395,0.981,1.15,1.14,1.02,0.673,0.441,0.458,0.419,0.463,0.392,–,–,–,–,–,0.642,0.702,0.686,0.699,0.688
NCI-H1563,1.22,1.08,1.1,1.12,0.808,–,–,–,–,–,1.05,0.827,0.753,0.838,0.852,–,–,–,–,–
NCI-H1648,–,–,–,–,–,0.828,0.671,0.88,0.653,0.555,–,–,–,–,–,0.5,0.453,0.496,0.448,0.327
NCI-H1650,–,–,–,–,–,0.852,0.735,0.638,0.568,0.332,0.189,0.19,0.2,0.19,0.222,0.419,0.427,0.378,0.385,0.45
NCI-H1703,0.692,0.821,0.674,0.72,0.352,0.492,0.513,0.323,0.385,0.274,0.407,0.401,0.258,0.41,0.356,–,–,–,–,–
NCI-H1793,0.806,0.523,0.309,0.302,0.296,0.529,0.461,0.361,0.29,0.211,–,–,–,–,–,0.34,0.521,0.493,0.59,0.499
NCI-H1944,1.08,0.79,0.643,0.606,0.428,0.39,0.343,0.341,0.288,0.236,–,–,–,–,–,0.423,0.419,–,0.415,0.416
NCI-H2170,–,–,–,–,–,0.654,0.609,–,0.548,0.52,–,–,–,–,–,0.481,0.487,0.458,0.447,0.411
NCI-H2228,0.582,0.764,0.646,0.472,0.396,0.691,0.541,0.641,0.422,0.224,0.882,0.834,–,0.887,1.19,–,–,–,–,–
NCI-H2342,–,–,–,–,–,0.404,0.4,0.327,0.359,0.399,–,–,–,–,–,0.685,0.702,0.674,0.693,0.623
SK-MES-1,1.02,0.938,0.779,0.505,0.338,0.841,0.737,0.546,0.373,0.245,–,–,–,–,–,0.37,0.336,0.369,0.38,0.369
SW 900,–,–,–,–,–,0.838,0.782,0.669,0.809,0.518,–,–,–,–,–,0.366,–,–,0.433,0.483
